How the values were obtained:
[1] = system: CFA-induced thermal hyperalgesia; test: CFA model, thermal hyperalgesia (Hargreaves plantar test); format: in vivo, rat
Description: Assessment of thermal hyperalgesia: Baseline and post-treatment withdrawal latencies to a noxious thermal stimulus were measured according to Hargreaves (Hargreaves et al., 1988) using a plantar test analgesia meter (IITC, Woodland Hills, Calif., model # 336). The stimulus intensity was set at 30% of maximum output and the cut-off time was set at 30 seconds. Rats were placed on a glass plate warmed to 28° C. and allowed to habituate to the testing chambers for a minimum of 15 minutes prior to each testing session. The thermal stimulus was applied to the plantar surface of the paw, and the mean latency of three readings on each paw was used as the latency value for each time point. Thermal thresholds were defined as the latency in seconds to the first pain behavior, which includes nocifensive paw withdrawal, flinching, biting and/or licking of the stimulated paw. The mean and standard error of the mean (SEM) were determined for the injured and normal paws for each treatment group.
For comparison, results with morphine (6 mg/kg sc) and indomethacin (30 mg/kg po) are shown. […] Data are expressed as mean±SEM, (n=10). **P<0.01, vs. baseline.

[2] = system: CFA-induced inflammatory pain; test: CFA model of chronic inflammatory pain, hindpaw weight bearing (Incapacitance Tester); format: in vivo, rat; conditions: 24 h after CFA, 60 min after drug injection, n=7-8
Description: Rats (body weight 260-300 g) were given a s.c. injection of CFA (50% in saline, 100 μl, Sigma) into the plantar surface of the hindpaw under brief halothane anaesthesia. After 24 h, they were then tested for hindpaw weight bearing responses, as assessed using an Incapacitance Tester (Linton Instrumentation, UK), (Zhu et al., 2005). The instrument incorporates a dual channel scale that separately measures the weight of the animal distributed to each hindpaw. While normal rats distribute their body weight equally between the two hindpaws (50-50), the discrepancy of weight distribution between an injured and non-injured paw is a natural reflection of the discomfort level in the injured paw (nocifensive behavior). The rats were placed in the plastic chamber designed so that each hindpaw rested on a separate transducer pad. […] For each rat, three readings from each paw were taken and then averaged. Side-to-side weight bearing difference was calculated as the average of the absolute value of the difference between two hindpaws from three trials (right paw reading-left paw reading).
Hindpaw weight bearing responses were measured in male Sprague-Dawley rats for 2-3 days prior to being given a hindpaw injection of CFA. Twenty-four hours later baseline responses were measured and rats were then administered Compound A (5, 10 and 20 mg/kg, i.p.), Compound H (10, 30 and 60 mg/kg) and morphine (3, 6 and 10 mg/kg). Weight bearing responses were then measured at 30, 60 and 120 min after drug or vehicle injection (data shown at 60 min.). […] Data are expressed as mean +/−SEM. *P<0.05, **P<0.01, *** P<0.001 vs baseline; +++: P<0.001 vs vehicle. All groups n=7-8.

Row | Compound | efficacy on CFA-induced thermal hyperalgesia ([1]; 30 mg/kg po) | CFA-induced change in hindpaw weight bearing compared with vehicle [2] | efficacy on CFA-induced thermal hyperalgesia ([1]; 6 mg/kg sc)
1 | COc1ccc2c(c1)c(CC(=O)O)c(C)n2C(=O)c1ccc(Cl)cc1 [indomethacin, reference compound] | fully efficacious |  | 
2 | CN1CC[C@]23c4c5ccc(O)c4O[C@H]2[C@@H](O)C=C[C@H]3[C@H]1C5 [morphine, reference compound] |  | marked dose-dependent attenuation in the CFA-induced change in weight bearing | fully efficacious
